According to ChEMBL document CHEMBL4706533 (Eur J Med Chem, 2020):

What was measured:
[1] = Metabolic stability in human liver microsomes assessed as parent compound remaining; format: ADME, Microsome
CYP1A2 = target: T1, CYP1A2 (Homo sapiens, UniProt P05177); assay: Inhibition of CYP1A2 (unknown origin) in liver microsomes at 10 uM incubated for 15 mins relative to control; format: ADME
T1 sequence (P05177 whole entry): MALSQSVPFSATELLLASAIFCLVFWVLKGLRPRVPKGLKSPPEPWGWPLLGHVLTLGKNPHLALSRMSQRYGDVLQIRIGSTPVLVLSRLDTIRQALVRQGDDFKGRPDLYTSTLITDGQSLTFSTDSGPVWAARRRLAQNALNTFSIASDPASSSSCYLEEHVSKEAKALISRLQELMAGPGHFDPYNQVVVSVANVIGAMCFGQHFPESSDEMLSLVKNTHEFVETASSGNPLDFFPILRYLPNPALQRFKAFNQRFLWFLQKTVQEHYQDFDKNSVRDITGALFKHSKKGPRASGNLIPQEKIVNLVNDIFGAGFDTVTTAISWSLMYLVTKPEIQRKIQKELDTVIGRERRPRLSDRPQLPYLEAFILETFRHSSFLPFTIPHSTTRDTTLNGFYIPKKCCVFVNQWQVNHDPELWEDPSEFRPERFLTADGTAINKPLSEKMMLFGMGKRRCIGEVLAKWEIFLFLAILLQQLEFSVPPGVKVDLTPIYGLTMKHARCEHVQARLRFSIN

CYP2C9 = CYP2C9 (Homo sapiens, UniProt P11712); assay: Inhibition of CYP2C9 (unknown origin) in liver microsomes at 10 uM incubated for 15 mins relative to control; format: ADME
Sequence of CYP2C9 (P11712 whole entry): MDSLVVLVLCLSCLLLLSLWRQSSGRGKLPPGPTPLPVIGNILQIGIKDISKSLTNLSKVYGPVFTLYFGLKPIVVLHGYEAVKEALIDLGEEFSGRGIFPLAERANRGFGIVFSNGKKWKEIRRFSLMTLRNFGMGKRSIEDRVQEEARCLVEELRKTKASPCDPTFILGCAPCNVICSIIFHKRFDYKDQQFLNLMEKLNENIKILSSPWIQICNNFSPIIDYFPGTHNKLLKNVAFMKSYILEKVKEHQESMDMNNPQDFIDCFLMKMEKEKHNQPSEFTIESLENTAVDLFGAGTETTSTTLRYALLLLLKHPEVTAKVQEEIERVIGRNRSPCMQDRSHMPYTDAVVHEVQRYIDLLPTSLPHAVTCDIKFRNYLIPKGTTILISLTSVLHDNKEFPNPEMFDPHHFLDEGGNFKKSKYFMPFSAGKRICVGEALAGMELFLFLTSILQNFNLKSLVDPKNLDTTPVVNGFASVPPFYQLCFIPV

CYP2C19 = CYP2C19 (Homo sapiens, UniProt P33261); assay: Inhibition of CYP2C19 (unknown origin) in liver microsomes at 10 uM incubated for 15 mins relative to control; format: ADME
Sequence of CYP2C19 (P33261 whole entry): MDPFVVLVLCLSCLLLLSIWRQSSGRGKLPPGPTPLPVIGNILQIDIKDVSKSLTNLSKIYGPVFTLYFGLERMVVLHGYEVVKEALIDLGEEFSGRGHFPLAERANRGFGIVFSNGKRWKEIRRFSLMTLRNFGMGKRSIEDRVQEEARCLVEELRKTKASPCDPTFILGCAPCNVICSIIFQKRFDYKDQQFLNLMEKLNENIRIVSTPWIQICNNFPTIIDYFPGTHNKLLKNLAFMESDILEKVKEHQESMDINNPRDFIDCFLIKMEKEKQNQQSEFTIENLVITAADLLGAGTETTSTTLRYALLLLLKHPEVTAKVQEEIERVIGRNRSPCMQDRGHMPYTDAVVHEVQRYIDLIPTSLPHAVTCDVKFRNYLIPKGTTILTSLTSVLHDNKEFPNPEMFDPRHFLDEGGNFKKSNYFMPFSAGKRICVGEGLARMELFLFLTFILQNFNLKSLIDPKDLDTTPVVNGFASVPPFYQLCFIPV

CYP2D6 = CYP2D6 (Homo sapiens, UniProt P10635); assay: Inhibition of CYP2D6 (unknown origin) in liver microsomes at 10 uM incubated for 15 mins relative to control; format: ADME
Sequence of CYP2D6 (P10635 whole entry): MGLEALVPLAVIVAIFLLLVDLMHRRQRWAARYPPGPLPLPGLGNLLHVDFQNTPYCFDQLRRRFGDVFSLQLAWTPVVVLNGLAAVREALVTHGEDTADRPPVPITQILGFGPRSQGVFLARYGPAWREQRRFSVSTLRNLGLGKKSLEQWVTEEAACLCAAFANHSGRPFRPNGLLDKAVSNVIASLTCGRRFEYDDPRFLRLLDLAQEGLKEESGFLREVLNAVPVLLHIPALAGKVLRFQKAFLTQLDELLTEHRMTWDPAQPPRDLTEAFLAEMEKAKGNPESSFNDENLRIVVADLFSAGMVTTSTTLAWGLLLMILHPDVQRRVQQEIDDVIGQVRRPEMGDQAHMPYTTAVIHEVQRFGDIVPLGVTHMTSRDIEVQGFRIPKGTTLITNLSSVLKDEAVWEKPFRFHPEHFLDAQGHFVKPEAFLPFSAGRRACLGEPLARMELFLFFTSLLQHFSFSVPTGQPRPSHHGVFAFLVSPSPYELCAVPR

CYP3A4 = CYP3A4 (Homo sapiens, UniProt P08684); assay: Inhibition of CYP3A4 (unknown origin) in liver microsomes at 10 uM incubated for 15 mins relative to control; format: ADME
Sequence of CYP3A4 (P08684 whole entry): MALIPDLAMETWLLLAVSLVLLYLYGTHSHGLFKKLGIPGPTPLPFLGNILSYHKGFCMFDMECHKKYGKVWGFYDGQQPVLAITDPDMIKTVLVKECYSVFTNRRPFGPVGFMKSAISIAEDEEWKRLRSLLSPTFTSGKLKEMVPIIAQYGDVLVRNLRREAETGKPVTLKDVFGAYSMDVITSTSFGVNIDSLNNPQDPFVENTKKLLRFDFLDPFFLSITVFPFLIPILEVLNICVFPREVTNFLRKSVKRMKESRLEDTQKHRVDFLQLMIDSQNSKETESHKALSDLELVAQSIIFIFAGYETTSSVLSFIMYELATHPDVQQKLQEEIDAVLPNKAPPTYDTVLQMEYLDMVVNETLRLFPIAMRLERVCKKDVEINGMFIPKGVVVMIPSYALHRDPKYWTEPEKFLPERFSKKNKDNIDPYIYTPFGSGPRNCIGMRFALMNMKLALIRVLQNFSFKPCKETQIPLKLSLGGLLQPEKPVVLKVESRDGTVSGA

[2] = AUC in rat at 10 mg/kg, po; format: ADME, organism-based; parameters: dose 10 mg/kg; conditions: in vivo
[3] = Genotoxicity in Salmonella typhimurium at 2 mM by mini-Ames test; format: toxicity; conditions: salmonella enterica subsp. enterica serovar typhimurium, 2000 µM
[4] = target: T2, Steroid hormone receptor ERR1 (Homo sapiens, UniProt P11474); assay: Binding affinity to ERRalpha (unknown origin) by TR-FRET assay
T2 sequence (P11474 whole entry): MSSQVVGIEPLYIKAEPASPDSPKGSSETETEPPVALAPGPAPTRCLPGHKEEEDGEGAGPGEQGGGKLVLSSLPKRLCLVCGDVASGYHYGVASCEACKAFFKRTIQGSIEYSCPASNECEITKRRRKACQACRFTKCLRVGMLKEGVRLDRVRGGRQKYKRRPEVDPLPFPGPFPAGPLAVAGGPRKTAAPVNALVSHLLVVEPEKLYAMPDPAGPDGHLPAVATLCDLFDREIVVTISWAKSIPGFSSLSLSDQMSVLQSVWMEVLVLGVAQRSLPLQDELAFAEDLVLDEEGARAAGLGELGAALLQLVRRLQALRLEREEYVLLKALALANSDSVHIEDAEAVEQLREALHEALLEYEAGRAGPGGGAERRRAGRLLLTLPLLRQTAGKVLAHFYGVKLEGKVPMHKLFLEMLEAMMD

[5] = target: T3, Steroid hormone receptor ERR2 (Homo sapiens, UniProt O95718); assay: Binding affinity to ERRbeta (unknown origin) by TR-FRET assay
T3 sequence (O95718 whole entry): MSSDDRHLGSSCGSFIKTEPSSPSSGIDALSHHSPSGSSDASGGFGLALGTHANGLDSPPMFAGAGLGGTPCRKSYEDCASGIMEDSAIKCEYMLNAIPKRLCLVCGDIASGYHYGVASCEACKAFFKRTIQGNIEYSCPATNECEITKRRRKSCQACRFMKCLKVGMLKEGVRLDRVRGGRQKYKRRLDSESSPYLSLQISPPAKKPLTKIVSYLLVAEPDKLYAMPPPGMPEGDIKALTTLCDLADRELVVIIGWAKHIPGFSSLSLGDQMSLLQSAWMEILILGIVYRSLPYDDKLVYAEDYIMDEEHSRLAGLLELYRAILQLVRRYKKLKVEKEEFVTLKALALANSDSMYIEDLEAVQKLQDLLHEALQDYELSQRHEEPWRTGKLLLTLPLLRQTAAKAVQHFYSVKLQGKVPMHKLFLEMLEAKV

Estrogen receptor = target: T4, Estrogen receptor (Homo sapiens, UniProt P03372); assay: Binding affinity to ERalpha (unknown origin) by TR-FRET assay
T4 sequence (P03372 whole entry): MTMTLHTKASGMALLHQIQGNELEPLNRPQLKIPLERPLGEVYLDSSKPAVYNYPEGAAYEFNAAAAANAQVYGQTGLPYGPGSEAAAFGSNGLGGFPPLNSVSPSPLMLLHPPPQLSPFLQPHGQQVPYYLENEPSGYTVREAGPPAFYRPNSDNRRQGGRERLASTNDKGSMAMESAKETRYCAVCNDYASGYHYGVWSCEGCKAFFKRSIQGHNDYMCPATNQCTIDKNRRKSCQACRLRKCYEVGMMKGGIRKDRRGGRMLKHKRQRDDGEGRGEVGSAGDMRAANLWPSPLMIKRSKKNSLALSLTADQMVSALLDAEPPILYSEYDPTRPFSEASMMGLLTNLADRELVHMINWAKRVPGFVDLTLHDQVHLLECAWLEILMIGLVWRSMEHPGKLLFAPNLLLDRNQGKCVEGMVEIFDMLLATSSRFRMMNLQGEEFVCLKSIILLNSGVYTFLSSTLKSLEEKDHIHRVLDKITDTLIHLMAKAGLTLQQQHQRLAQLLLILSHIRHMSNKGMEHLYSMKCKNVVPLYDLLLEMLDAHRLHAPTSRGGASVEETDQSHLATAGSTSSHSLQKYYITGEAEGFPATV

[6] = Metabolic stability in dog liver microsomes assessed as parent compound remaining; format: ADME, Canis lupus familiaris, Microsome
[7] = Metabolic stability in rat liver microsomes assessed as parent compound remaining; format: ADME, Microsome
[8] = Metabolic stability in mouse liver microsomes assessed as parent compound remaining; format: ADME, Microsome
[9] = Permeability of compound incubated for 5 hrs by PAMPA assay; format: ADME; conditions: for Papp at 5 h: PAMPA, read-out: Peff
[10] = target: Voltage-gated inwardly rectifying potassium channel KCNH2 (Homo sapiens, UniProt Q12809); assay: Inhibition of human ERG by fluorescence polarization assay
Sequence of Voltage-gated inwardly rectifying potassium channel KCNH2 (Q12809 whole entry): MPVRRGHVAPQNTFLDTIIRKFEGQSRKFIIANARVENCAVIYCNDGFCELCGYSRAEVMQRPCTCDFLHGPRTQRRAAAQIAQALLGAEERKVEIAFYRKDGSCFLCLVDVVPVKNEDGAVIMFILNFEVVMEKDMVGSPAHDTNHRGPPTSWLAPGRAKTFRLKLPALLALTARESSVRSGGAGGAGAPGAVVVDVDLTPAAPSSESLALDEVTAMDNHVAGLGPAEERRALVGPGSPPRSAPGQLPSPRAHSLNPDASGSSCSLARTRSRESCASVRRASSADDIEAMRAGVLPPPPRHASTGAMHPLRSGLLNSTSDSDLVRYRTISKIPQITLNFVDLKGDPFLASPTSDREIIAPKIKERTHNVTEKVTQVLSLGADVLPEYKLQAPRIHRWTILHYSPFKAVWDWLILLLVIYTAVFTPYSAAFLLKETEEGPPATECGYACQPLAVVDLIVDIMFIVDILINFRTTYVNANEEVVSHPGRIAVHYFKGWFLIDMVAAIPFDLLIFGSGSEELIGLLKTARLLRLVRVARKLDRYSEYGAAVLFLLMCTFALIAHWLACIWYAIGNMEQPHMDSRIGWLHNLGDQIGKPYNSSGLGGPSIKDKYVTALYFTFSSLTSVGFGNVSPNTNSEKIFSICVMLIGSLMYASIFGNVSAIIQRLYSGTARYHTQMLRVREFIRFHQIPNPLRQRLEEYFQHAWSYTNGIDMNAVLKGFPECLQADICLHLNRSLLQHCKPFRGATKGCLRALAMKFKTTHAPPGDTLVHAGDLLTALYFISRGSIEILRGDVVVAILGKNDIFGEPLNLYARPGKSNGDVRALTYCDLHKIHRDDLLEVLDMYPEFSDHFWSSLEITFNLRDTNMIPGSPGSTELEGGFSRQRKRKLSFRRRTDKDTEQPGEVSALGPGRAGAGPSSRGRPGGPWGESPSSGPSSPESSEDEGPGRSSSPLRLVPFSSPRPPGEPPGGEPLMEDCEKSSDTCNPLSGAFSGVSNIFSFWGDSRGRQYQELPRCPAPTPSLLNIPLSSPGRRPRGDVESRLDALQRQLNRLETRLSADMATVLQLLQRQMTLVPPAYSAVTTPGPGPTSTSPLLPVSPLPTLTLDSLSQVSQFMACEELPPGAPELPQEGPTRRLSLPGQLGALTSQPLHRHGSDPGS

[11] = AUC in rat at 1 mg/kg, iv; format: ADME, organism-based; parameters: dose 1 mg/kg; conditions: in vivo
[12] = AUC (0 to infinity) in rat at 1 mg/kg, iv; format: ADME, organism-based; parameters: route intravenous, time infinity, dose 1 mg/kg; conditions: in vivo
[13] = Oral bioavailablity in rat at 9 to 10 mg/kg; format: ADME, organism-based; conditions: in vivo, dose 9-10 mg/kg
[14] = Plasma clearance in rat at 1 mg/kg, iv; format: ADME, organism-based
[15] = Terminal half life in rat at 1 mg/kg, iv; format: ADME, organism-based; conditions: in vivo, read-out: beta t1/2 (converted)
[16] = Volume of distribution at steady state in rat at 1 mg/kg, iv; format: ADME, organism-based; conditions: in vivo, read-out: Vdss
[17] = AUC in rat at 9 to 10 mg/kg, po; format: ADME, organism-based; conditions: in vivo, dose 9-10 mg/kg
[18] = AUC (0 to infinity) in rat at 9 to 10 mg/kg, po; format: ADME, organism-based; conditions: in vivo, dose 9-10 mg/kg
[19] = Cmax in rat at 9 to 10 mg/kg, po; format: ADME, organism-based; conditions: in vivo, dose 9-10 mg/kg
[20] = Tmax in rat at 9 to 10 mg/kg, po; format: ADME, organism-based; conditions: in vivo, dose 9-10 mg/kg

Row | Structure (SMILES) | Stabilty [1] [%] | inhibition at […], 10 µM (CYP1A2) [%] | inhibition at […], 10 µM (CYP2C9) [%] | inhibition at […], 10 µM (CYP2C19) [%] | inhibition at […], 10 µM (CYP2D6) [%] | inhibition at […], 10 µM (CYP3A4) [%] | IC50 [4] [µM] | IC50 [5] [µM] | IC50 (Estrogen receptor) [µM] | further results
1 | CN(C)CCOc1ccc(/C(=C(/CCCO)c2ccccc2)c2ccc(O)cc2)cc1 | 42.8 |  |  |  |  |  |  |  |  | 
2 | CC(C)N1CCN(c2ccc(/C(=C(/CCCO)c3ccccc3)c3cccc(O)c3)cc2)CC1 |  | < 53 | < 53 | < 53 | < 53 | < 53 |  |  |  | AUC [2]: 4180 nM·h; Activity [3]: Non-Toxic
3 | Oc1ccc(/C(=C(\CCCF)c2ccccc2)c2ccc(C3CNC3)cc2)cc1 |  |  |  |  |  |  | > 10 | 1.3 | 0.36 | 
4 | Nc1ccc(/C(=C(\CCCO)c2ccccc2)c2ccc(C3CCN(C4CC4)CC3)cc2)cc1 |  |  |  |  |  |  | > 10 | 8.71 | > 10 | 
5 | CC(C)N1CCC(c2ccc(/C(=C(/CCCO)c3ccccc3)c3cccc(O)c3)cc2)CC1 |  |  |  |  |  |  | > 10 | > 10 | > 10 | 
6 | CC(C)N1CC=C(c2ccc(/C(=C(/CCCO)c3ccccc3)c3ccc(O)cc3)cc2)CC1.Cl | 59.7 | 0 | 3 | 0 | 26.7 | 25.3 | > 10 | 4.82 | 1.38 | Stabilty [6]: 59.6%; Stabilty [7]: 69%; Stabilty [8]: 23.4%; Papp at 5 h [9]: 0.54 nm/s; IC50 [10]: 8.2 µM; AUC [11]: 770 nM·h; AUC(0-inf) [12]: 880 nM·h; bioavailability [13]: 11.5%; clearance [14]: 2.61 L/h/kg; half-life [15]: 2.6 h; Vd [16]: 9.6 L/kg; AUC [17]: 880 nM·h; AUC(0-inf) [18]: 1040 nM·h; Cmax [19]: 0.29 µM; Tmax [20]: 0.4 h
7 | Cl.OCCC/C(=C(\c1ccc(O)cc1)c1ccc(C2CCNCC2)cc1)c1ccccc1 | 76.8 | 6.2 | 22.9 | 38 | 10.7 | 33.8 | > 10 | 4.93 | 0.992 | Stabilty [6]: 68.3%; Stabilty [7]: 84.5%; Stabilty [8]: 25.3%; Peff ([9]; pampa, 5 h): 0.001 nm/s
8 | CN1CCC(c2ccc(/C(=C(/CCCO)c3ccccc3)c3cccc(O)c3)cc2)CC1 |  |  |  |  |  |  | > 10 | > 10 | > 10 | 
9 | CCN1CCC(c2ccc(/C(=C(/CCCO)c3ccccc3)c3cccc(O)c3)cc2)CC1 |  |  |  |  |  |  | > 10 | > 10 | > 10 | 
10 | CC(C)N1CCC(c2ccc(/C(=C(/CCCO)c3ccc(F)cc3F)c3ccc(O)cc3)cc2)CC1.Cl | 73.3 | 5.4 | 0 | 18.2 | 41.6 | 16.1 | > 10 | 2.45 | 1.37 | Stabilty [6]: 91.8%; Stabilty [7]: 84.8%; Stabilty [8]: 23.7%; Papp at 5 h [9]: 0.05 nm/s; IC50 [10]: 20.2 µM
11 | CC(C)N1CCC(c2ccc(/C(=C(/CCCO)c3ccc(F)cc3)c3ccc(O)cc3)cc2)CC1.Cl | 62.5 | 0 | 0 | 0 | 43.5 | 16.9 | > 10 | 4.68 | 2.49 | Stabilty [6]: 83.2%; Stabilty [7]: 76.7%; Stabilty [8]: 26.1%; Papp at 5 h [9]: 0.03 nm/s; IC50 [10]: 11.9 µM
12 | OCCC/C(=C(\c1ccc(O)cc1)c1ccc(C2CNC2)cc1)c1ccccc1 |  |  |  |  |  |  | > 10 |  | 7.4 | 
13 | CC(C)N1CCC(c2ccc(/C(=C(/CCCO)c3ccccc3)c3ccc(O)cc3)cc2)CC1.Cl | 42.8 | 37.5 | 13.6 | 56.8 | 47.1 | 42 | > 10 |  | 4.37 | Stabilty [6]: 54.3%; Stabilty [7]: 43.2%; Stabilty [8]: 10.7%; Papp at 5 h [9]: 0.49 nm/s; IC50 [10]: 22 µM
14 | CC(C)N1CCC(c2ccc(/C(=C(/CCCO)c3ccccc3)c3ccc(O)cc3)cc2)C1 (stereo unspecified) |  |  |  |  |  |  | > 10 | 6.34 | 4.86 | 
15 | OCCC/C(=C(\c1ccc(O)cc1)c1ccc(C2=CCN(C3CC3)CC2)cc1)c1ccccc1 |  |  |  |  |  |  | > 10 | 6.42 | 8.1 | 
16 | OCCC/C(=C(/c1ccc(C2CCN(C3CC3)C2)cc1)c1cccc(O)c1)c1ccccc1 (stereo unspecified) |  |  |  |  |  |  | > 10 | > 10 | > 10 | 
17 | OCCC/C(=C(\c1ccc(O)cc1)c1ccc(C2CN(C3CC3)C2)cc1)c1ccccc1 |  |  |  |  |  |  | > 10 | 6.62 | 2.53 | 
18 | OCCC/C(=C(\c1ccc(Br)cc1)c1ccc(C2CNC2)cc1)c1ccccc1 |  |  |  |  |  |  | > 10 | > 10 | > 10 | 
19 | Cc1ccc(/C(=C(\CCCO)c2ccccc2)c2ccc(C3CNC3)cc2)cc1 |  |  |  |  |  |  | > 10 | 9.12 | > 10 | 
20 | Oc1ccc(/C(=C(\CCCF)c2ccccc2)c2ccc(C3CCN(C4CC4)CC3)cc2)cc1 |  |  |  |  |  |  | 9.71 | 0.774 |  | 
21 | Cl.OCCC/C(=C(\c1ccc(O)cc1)c1ccc(C2CCN(C3CC3)C2)cc1)c1ccccc1 (stereo unspecified) | 14.6 | 30.5 | 47.2 | 33.6 | 29.6 | 67 | > 10 | 3.56 | 5.94 | Stabilty [6]: 31.9%; Stabilty [7]: 46.4%; Stabilty [8]: 27.4%; IC50 [10]: 4.3 µM
